Results published in paper PMC4604124, “In Vitro Characterization of the Pharmacological Properties of the Anti-Cancer Chelator, Bp4eT, and Its Phase I Metabolites” (PLoS ONE, 2015).
Where “and” joins values, the source holds several entries; their conditions need not be identical. Equal entries are not always repeated.

Tests used:
[1] = tested on: labile iron pool of MCF-7 cells; experiment: Calcein-AM assay, access to the labile iron pool; assay type: cell-based, human; design: Calcein fluorescence: unit not given here; conditions: 10 μM
Outline: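 MCF-7 cells iron-loaded with ferric ammonium citrate (530 μg/mL) for 24 h, then loaded with 2 μM calcein-AM for 30 min at 37°C in ADS buffer, pH 7.4. Calcein fluorescence dequenching (ex 488/em 530 nm) followed for 10 min after adding 10 μM compound; efficacy expressed as percentage of Bp4eT (100%).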

[2] = tested on: MCF-7 cells prelabeled with 59Fe2-transferrin; experiment: Mobilization (efflux) of cellular 59Fe; assay type: cell-based, human; design: Efflux 59Fe / Efflux 59Fe, Ave: unit not given here
Outline: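 Confluent MCF-7 cells prelabeled with 0.75 μM 59Fe2-Tf for 3 h at 37 °C, washed, then exposed to 25 μM compound for 3 h at 37 °C. 59Fe in cells and medium counted by γ-scintillation to give released fraction.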

[3] = Ascorbate oxidation assay (redox activity of iron complexes); assay type: biochemical;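 as to %Fe 30min (ascorbate oxidation, Fe 100%), průměr: IBE 3 means excess free chelator over iron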;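 as to %Fe 30min (ascorbate oxidation, Fe 100%): IBE 3 means excess free chelator over iron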;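 as to %Fe 30min (ascorbate oxidation, Fe = 100%), průměr (mean): IBE 1 means iron-binding equivalents giving fully coordinated iron-chelator complexes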;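 as to %Fe 30min (ascorbate oxidation, Fe = 100%), single replicates: IBE 1 means iron-binding equivalents giving fully coordinated iron-chelator complexes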;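 as to %Fe 30min: ascorbate oxidation as % of the Fe control (Fe 100%): IBE 0.1 means iron-binding equivalents with iron in excess over chelator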;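 as to Change of absorbance, odečet 0 (time 0 subtracted), čas 10, průměr: IBE 3 means excess free chelator over 10 µM FeCl3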;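 as to Change of absorbance, odečet 0 (time 0 subtracted), čas 10: IBE 3 means excess free chelator over 10 µM FeCl3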;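 as to Change of absorbance, odečet 0 (time 0 subtracted), čas 20, průměr: 100 µM ascorbate with 10 µM FeCl3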;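 as to Change of absorbance, odečet 0 (time 0 subtracted), čas 20: 100 µM ascorbate with 10 µM FeCl3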;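 as to Change of absorbance, odečet 0 (time 0 subtracted), čas 30, průměr: 100 µM ascorbate with 10 µM FeCl3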;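 as to Change of absorbance, odečet 0 (time 0 subtracted), čas 30: 100 µM ascorbate with 10 µM FeCl3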;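 as to odečet 0 (reading minus time 0 reading) at čas 20, single replicates: IBE 1 means fully coordinated iron chelator complexes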;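 as to odečet 0 (reading minus time 0 reading) at čas 30, průměr (mean): IBE 1 means fully coordinated iron chelator complexes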;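 as to odečet 0 (reading minus time 0 reading) at čas 30, single replicates: IBE 1 means fully coordinated iron chelator complexes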;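 as to raw reading at čas 20 (time 20), průměr (mean): IBE 1 means fully coordinated iron chelator complexes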;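 as to raw reading at čas 20 (time 20), single replicates: IBE 1 means fully coordinated iron chelator complexes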;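 as to raw reading at čas 30 (time 30), průměr (mean): IBE 1 means fully coordinated iron chelator complexes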;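 as to raw reading at čas 30 (time 30), single replicates: IBE 1 means fully coordinated iron chelator complexes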
MCF-7 cells = experiment: Cell cycle analysis by flow cytometry (propidium iodide); assay type: cell-based, human; conditions: 0.1 μM, 72 h, control 33%
Protocol: To examine the effect of the agents on the cell cycle, MCF-7 cells were seeded in 60 mm Petri dishes at a density of 240,000 cells/dish and incubated with Bp4eT or its metabolites for 72 h/37°C. The cells were then harvested, fixed by ethanol and stained by propidium iodide (Molecular Probes, Eugene, OR, USA) for 30 min/37°C, as described previously. Cells were analyzed using Accuri C6 flow cytometer (Becton Dickinson and Company, San Jose, CA USA). Propidium iodide was excited at λex = 488 nm and fluorescence analyzed at λem = 585 nm (FL-2) with a total of 10,000 events collected per analysis.
SigmaStat for Windows 3.5 (Systat Software, San Jose, CA, USA) statistical software package was utilized to analyze results. The data are expressed as the mean ± SD of a given number of experiments. Statistical significance was determined using a one-way ANOVA with a Bonferroni post-hoc test or Student’s t-test. The results were considered to be statistically significant when p < 0.05. The IC50 values were calculated using CalcuSyn 2.0 software (Biosoft, Cambridge, UK). Cell cycle analysis was evaluated using MultiCycle AV Software (Phoenix Flow Systems, San Diego, CA, USA).

[4] = sheet IBE 1, time 10, replicates
[5] = sheet IBE 1, time 20, replicates
[6] = sheet IBE 1, time 30, replicates

## CCNC(=O)NN=C(c1ccccc1)c1ccccn1 [E-Bp4eS, 2-benzoylpyridine 4-ethylsemicarbazone]
[1]; 30 sec, mean (průměr)
  Calcein fluorescence: 0.000
[1]; 30 sec, single experiments
  Calcein fluorescence: 0.000
[1]; 60 sec, mean (průměr)
  Calcein fluorescence: 3.596
[1]; 90 sec, mean (průměr)
  Calcein fluorescence: 0.696
[1]; 120 sec, mean (průměr)
  Calcein fluorescence: 1.617
[1]; 300 sec, mean (průměr)
  Calcein fluorescence: 0.000
[1]; 300 sec, single experiments
  Calcein fluorescence: 0.000
[1]; 600 sec, mean (průměr)
  Calcein fluorescence: 0.000
[1]; 600 sec, single experiments
  Calcein fluorescence: 0.000
[1]; MCF-7, mean of 6 experiments
  Chelation efficacy: fluorescence of free calcein at t = 600 s as percentage of Bp4eT: 0.0001667%
[1]; MCF-7, single experiments
  Fluorescence of free calcein at 600 s as percentage of Bp4eT: 0%
[2]; average of all replicates
  Efflux 59Fe, Ave: 3.661
[2]; single replicate (three per date)
  Efflux 59Fe: 4.9211 and 3.6997 and 3.3917 and 3.5987 and 3.8929 and 3.2529 and 3.6068 and 3.4574 and 3.1235
[3]; IBE 0.1, 30 min, mean (průměr)
  %Fe 30min: ascorbate oxidation as % of the Fe control (Fe 100%): 110.6%
[3]; IBE 0.1, time 10, mean (průměr)
  Change of absorbance after subtraction of time 0 (odečet 0): -0.03606
[3]; IBE 0.1, time 20, mean (průměr)
  Change of absorbance after subtraction of time 0 (odečet 0): -0.07143
[3]; IBE 0.1, time 30, mean (průměr)
  Change of absorbance after subtraction of time 0 (odečet 0): -0.1048
[3]; IBE 0.1, čas 0 (time 0), mean (průměr)
  Absorbance (ascorbate, λ = 265 nm): 0.8403
[3]; IBE 0.1, čas 10 (time 10), mean (průměr)
  Absorbance (ascorbate, λ = 265 nm): 0.8042
[3]; IBE 0.1, čas 20 (time 20), mean (průměr)
  Absorbance (ascorbate, λ = 265 nm): 0.7689
[3]; IBE 0.1, čas 30 (time 30), mean (průměr)
  Absorbance (ascorbate, λ = 265 nm): 0.7355
[3]; IBE 0.1, čas 30 (time 30), single wells
  Absorbance (ascorbate, λ = 265 nm): 0.7395 and 0.7451 and 0.7441 and 0.7317 and 0.7361 and 0.735 and 0.7279 and 0.7282
[3]; sheet IBE 1, 30min, Fe 100%, mean
  %Fe 30min (ascorbate oxidation, Fe = 100%), průměr (mean): 115.7%
[3]; sheet IBE 1, 30min, Fe 100%, replicates
  %Fe 30min (ascorbate oxidation, Fe = 100%), single replicates: 118.6% and 122% and 108.4% and 125.1% and 134.4% and 115.2% and 110.6% and 115.1% and 91.71%
[3]; sheet IBE 1, time 0, mean of 9 readings
  raw reading at čas 0 (time 0), průměr (mean): 0.822
[3]; sheet IBE 1, time 0, replicates of 2014-03-24 (two runs) and 2014-03-25
  raw reading at čas 0 (time 0), single replicates: 0.8574 and 0.8322 and 0.8144 and 0.8238 and 0.8106 and 0.8047 and 0.8172 and 0.7979 and 0.8393
[3]; sheet IBE 1, time 10, mean
  odečet 0 (reading minus time 0 reading) at čas 10, průměr (mean): -0.03765
[3]; sheet IBE 1, time 10, mean of 9 readings
  raw reading at čas 10 (time 10), průměr (mean): 0.7843
[3]; [4]
  odečet 0 (reading minus time 0 reading) at čas 10, single replicates: -0.03642 and -0.03472 and -0.03462 and -0.04217 and -0.04047 and -0.03637 and -0.03597 and -0.05027 and -0.02787
  raw reading at čas 10 (time 10), single replicates: 0.778 and 0.7891 and 0.776 and 0.7626 and 0.7768 and 0.7616 and 0.8033 and 0.8071 and 0.8043
[3]; sheet IBE 1, time 20, mean
  odečet 0 (reading minus time 0 reading) at čas 20, průměr (mean): -0.07141
[3]; sheet IBE 1, time 20, mean of 9 readings
  raw reading at čas 20 (time 20), průměr (mean): 0.7506
[3]; [5]
  odečet 0 (reading minus time 0 reading) at čas 20, single replicates: -0.07064 and -0.07124 and -0.06354 and -0.07877 and -0.08537 and -0.07037 and -0.07092 and -0.07622 and -0.05562
  raw reading at čas 20 (time 20), single replicates: 0.7438 and 0.7526 and 0.7471 and 0.726 and 0.7319 and 0.7276 and 0.7684 and 0.7812 and 0.7766
[3]; sheet IBE 1, time 30, mean
  odečet 0 (reading minus time 0 reading) at čas 30, průměr (mean): -0.1028
[3]; sheet IBE 1, time 30, mean of 9 readings
  raw reading at čas 30 (time 30), průměr (mean): 0.7192
[3]; [6]
  odečet 0 (reading minus time 0 reading) at čas 30, single replicates: -0.1024 and -0.1054 and -0.09363 and -0.1081 and -0.1161 and -0.09952 and -0.1043 and -0.1086 and -0.08655
  raw reading at čas 30 (time 30), single replicates: 0.712 and 0.7184 and 0.717 and 0.6966 and 0.7011 and 0.6984 and 0.735 and 0.7488 and 0.7457
[3]; sheet IBE 3, 30min, Fe alone = 100%, mean (průměr) of the 9 replicates
  %Fe 30min (ascorbate oxidation, Fe 100%), průměr: 117.9%
[3]; sheet IBE 3, 30min, Fe alone = 100%, single replicates
  %Fe 30min (ascorbate oxidation, Fe 100%): 124.2% and 115.8% and 108.1% and 126.9% and 132.9% and 126% and 114.7% and 109.6% and 103.1%
[3]; sheet IBE 3, time 10 minus time 0, mean (průměr)
  Change of absorbance, odečet 0 (time 0 subtracted), čas 10, průměr: -0.04086
[3]; sheet IBE 3, time 10 minus time 0, single replicates
  Change of absorbance, odečet 0 (time 0 subtracted), čas 10: -0.04474 and -0.03234 and -0.03864 and -0.04417 and -0.05097 and -0.04457 and -0.03984 and -0.03894 and -0.03354
[3]; sheet IBE 3, time 20 minus time 0, mean (průměr)
  Change of absorbance, odečet 0 (time 0 subtracted), čas 20, průměr: -0.076
[3]; sheet IBE 3, time 20 minus time 0, single replicates
  Change of absorbance, odečet 0 (time 0 subtracted), čas 20: -0.0807 and -0.0703 and -0.071 and -0.08341 and -0.08461 and -0.08331 and -0.07425 and -0.07045 and -0.06595
[3]; sheet IBE 3, time 30 minus time 0, mean (průměr)
  Change of absorbance, odečet 0 (time 0 subtracted), čas 30, průměr: -0.109
[3]; sheet IBE 3, time 30 minus time 0, single replicates
  Change of absorbance, odečet 0 (time 0 subtracted), čas 30: -0.1153 and -0.1075 and -0.1003 (2×) and -0.1178 and -0.1233 and -0.1169 and -0.105 and -0.09439
MCF-7 cells
  Percentage of cells in the G2/M phase: slight, but significant (p < 0.01–0.05) decrease
